Experimental data reported in US20060264402A1, “Pest control formulation” (Redline, Inc., priority 2003, published 2006).

Test system: human skin
Assay: Parasthesia irritation screening: one-gram drop placed on human skin, Parasthesia Irritation Rating (PIR)
Format: in vivo
Parameters: key: 0 = no discomfort, 4 = slight, 8 = noticeable, 12 = severe
Description: 1. Different ratios of active ingredient to IDPP are prepared for evaluation.
2. A one-gram drop of the ratio is placed on human skin. Only one drop is evaluated within a 24-hour period.
3. Irritation or sensitivity values are assigned according to the following scale (“Parasthesia Irritation Rating” or “PIR”): • 12=Severe • 8 =Noticeable discomfort • 4 =Slight discomfort • 0=No discomfort
4. If irritation is severe or noticeable at any time within a 24-hour period, the skin is washed and 5% lidocaine solution is applied to lessen discomfort.

[1] = ratio active agent:IDPP 0.67:1.00, within 24-hour period

SMILES	Parasthesia Irritation Rating (ratio active agent:IDPP 0.18:1.00, within 24-hour period)	Parasthesia Irritation Rating (ratio active agent:IDPP 0.21:1.00, within 24-hour period)	Parasthesia Irritation Rating (ratio active agent:IDPP 0.25:1.00, within 24-hour period)	Parasthesia Irritation Rating (ratio active agent:IDPP 0.33:1.00, within 24-hour period)	Parasthesia Irritation Rating (ratio active agent:IDPP 0.43:1.00, within 24-hour period)	Parasthesia Irritation Rating [1]	Parasthesia Irritation Rating (active agent 1.00 without IDPP (—), within 24-hour period)	Parasthesia Irritation Rating (ratio active agent:IDPP 1.00:1.00, within 24-hour period)	Parasthesia Irritation Rating (ratio active agent:IDPP 1.50:1.00, within 24-hour period)
CC1(C)C(C=C(Cl)Cl)C1C(=O)OC(C#N)c1cccc(Oc2ccccc2)c1 (stereo not shown) [Cypermethrin]	0.00	0.00	4.00	12.00	12.00	12.00	–	–	–
CC(C)=CC1C(C(=O)OC(C#N)c2cccc(Oc3ccccc3)c2)C1(C)C (stereo not shown) [Cyphenothrin]	–	–	–	–	–	0.00	12.00	0.00	4.00
